According to publication PMC4601640, “Stability of the Human Hsp90-p50^Cdc37 Chaperone Complex against Nucleotides and Hsp90 Inhibitors, and the Influence of Phosphorylation by Casein Kinase 2” (Molecules, 2015):
Values belong to the compound of their own block, whether it stands above or below them.

Key:
[1] = target: T1, ΔHsp90β interaction with GST-p50^Cdc37 (Homo sapiens, UniProt P08238, DEL220-271/E274G/I272G/K273G/K275G); experiment: GST pull-down of ΔHsp90β with GST-p50^Cdc37; type: binding
T1 construct: human Hsp90β (1-724 Δ220-275); made in house; host or cells: E. coli BL21 Star (DE3) (ΔHsp90β); E. coli BL21 (DE3) (GST-p50Cdc37)
T1 sequence (P08238 with tags, fused parts or gaps DEL220-271/I272G/K273G/E274G/K275G): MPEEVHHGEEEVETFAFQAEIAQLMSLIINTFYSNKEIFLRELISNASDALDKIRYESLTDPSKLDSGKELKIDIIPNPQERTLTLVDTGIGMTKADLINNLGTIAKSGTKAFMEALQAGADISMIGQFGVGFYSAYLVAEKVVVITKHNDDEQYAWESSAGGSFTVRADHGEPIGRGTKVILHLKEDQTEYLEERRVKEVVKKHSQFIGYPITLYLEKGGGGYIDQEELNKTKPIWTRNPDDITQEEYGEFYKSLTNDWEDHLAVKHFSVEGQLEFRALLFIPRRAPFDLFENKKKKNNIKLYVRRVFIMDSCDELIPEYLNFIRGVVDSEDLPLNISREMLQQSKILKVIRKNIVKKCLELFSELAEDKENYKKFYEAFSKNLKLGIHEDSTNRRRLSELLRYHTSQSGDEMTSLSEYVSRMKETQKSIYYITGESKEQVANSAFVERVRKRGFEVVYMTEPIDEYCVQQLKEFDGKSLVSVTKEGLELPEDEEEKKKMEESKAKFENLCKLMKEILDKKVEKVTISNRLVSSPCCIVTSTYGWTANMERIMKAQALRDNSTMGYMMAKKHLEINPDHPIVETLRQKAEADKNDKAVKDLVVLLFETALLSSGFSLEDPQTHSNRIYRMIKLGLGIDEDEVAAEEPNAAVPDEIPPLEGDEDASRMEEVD
Description: GST pull-down experiments were carried out using 1 mL GST 4 FastFlow resin in 8 mL Flex columns (Kontes). All experiments were performed at room temperature by gravity flow. Loading and wash buffers contained 50 mM Tris pH 8, 50 mM KCl, 5 mM MgCl2, and 5% DMSO. The elution buffer contained an additional 10 mM reduced glutathione. […] The resin was washed with 20 CV wash buffer, and samples were eluted with 2 CV elution buffer. Eluted protein was analysed on 12% SDS-PAGE stained with Coomassie blue for visualization.

hHsp90β-FL [2] = target: T2, hHsp90β-FL (Homo sapiens, UniProt P08238); experiment: ITC direct binding to full-length Hsp90β; conditions: Figure 3
T2 construct: The gene encoding human full-length Hsp90β was subcloned from T47D cell line cDNA; His6 (N); made in house; host or cells: E. coli BL21 Star (DE3)
Description: (§1) Binding of p50^Cdc37 and small molecules to Hsp90 was analyzed using a MicroCal iTC200 titration calorimeter (GE Healthcare). Compounds or p50^Cdc37 were titrated into a solution of Hsp90 using the following concentrations: p50^Cdc37 (200 µM) into Hsp90 (20 µM), nucleotides (600 µM) into Hsp90 (30 µM), inhibitors (300 µM) into Hsp90 (30 µM). […] All experiments were conducted in 50 mM HEPES pH 7.5, 10 mM MgCl2 at 30 °C. For titration of inhibitors, the buffer contained 5% DMSO. […] Generation of heat due to dilution was determined in separate experiments by diluting protein into buffer and subtracting these as blank values for each injection. Corrected heat values were fitted using a nonlinear least squares curve-fitting algorithm (Microcal Origin 7.0) to obtain the stoichiometry (n), binding constants (Ka, Kd), and change in enthalpy for each enzyme-ligand interaction (ΔH).

(p)Hsp90-(p)p50^Cdc37 = (p)Hsp90-(p)p50^Cdc37 (Homo sapiens, UniProt P08238); experiment: ELISA complex formation, both proteins CK2-phosphorylated; conditions: ELISA, (p)Hsp90-(p)p50^Cdc37 (phosphorylated complex)
Chain of (p)Hsp90-(p)p50^Cdc37 (P08238 whole entry): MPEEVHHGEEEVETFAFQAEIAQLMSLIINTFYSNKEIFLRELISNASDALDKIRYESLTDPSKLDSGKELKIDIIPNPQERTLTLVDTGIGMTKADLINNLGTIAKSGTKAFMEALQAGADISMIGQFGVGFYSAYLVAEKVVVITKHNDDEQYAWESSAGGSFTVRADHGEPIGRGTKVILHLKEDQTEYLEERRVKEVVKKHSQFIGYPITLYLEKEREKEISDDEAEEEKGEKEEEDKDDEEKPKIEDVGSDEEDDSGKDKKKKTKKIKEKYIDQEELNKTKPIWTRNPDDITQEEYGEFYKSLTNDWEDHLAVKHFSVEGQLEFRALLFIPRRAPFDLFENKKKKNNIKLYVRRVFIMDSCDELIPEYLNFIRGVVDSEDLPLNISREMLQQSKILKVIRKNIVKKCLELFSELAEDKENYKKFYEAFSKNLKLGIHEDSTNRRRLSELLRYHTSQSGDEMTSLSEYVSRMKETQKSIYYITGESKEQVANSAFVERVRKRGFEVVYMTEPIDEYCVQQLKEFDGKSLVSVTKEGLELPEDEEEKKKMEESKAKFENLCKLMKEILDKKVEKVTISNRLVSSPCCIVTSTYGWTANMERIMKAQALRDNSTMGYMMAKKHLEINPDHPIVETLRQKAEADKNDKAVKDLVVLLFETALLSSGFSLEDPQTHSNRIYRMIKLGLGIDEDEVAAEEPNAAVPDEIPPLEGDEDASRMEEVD
Description: (§2) Phosphorylation of full-length Hsp90β and p50^Cdc37 was performed using purified full-length CK2α. The reaction was carried out in a 2.5 mL volume containing 50 µM Hsp90β or p50^Cdc37, 0.5 µM CK2α, 0.5 mM ATP, 20 mM Tris (pH 7.5), 50 mM KCl, and 10 mM MgCl2, and was incubated for 1 h at 30 °C. Samples were removed for analysis of phosphorylation status, and the proteins were re-buffered into 50 mM HEPES (pH 7.5), 150 mM NaCl, and 1 mM DTT (ELISA), or into 50 mM HEPES (pH 7.5) for ITC, using PD-10 gravity columns (GE Healthcare). Dephosphorylation was performed using 2.5 units of FastAP (alkaline phosphatase from Thermo Scientific) in buffer containing 10 mM Tris (pH 8.0 at 37 °C), 5 mM MgCl2, 100 mM KCl, 0.02% Triton-X 100, and 0.5 mg/mL BSA for 1 h at 37 °C.
(§3) Purified GST-p50^Cdc37 (4 µM) or control (purified GST alone, 4 µM) was added to glutathione-coated 96-well plates (Pierce) in 100 μL protein buffer (50 mM HEPES, pH 7.5, 150 mM NaCl, 10 mM MgCl2, 0.05% Tween-20, and 0.1% BSA) and incubated for 1 h at room temperature (triplicate wells per sample). […] The mixtures were then added to the wells (100 μL per well, in triplicates) and incubated for 1 h at room temperature before washing. The wells were incubated with anti-His6-tag mAb (1 mg/mL stock, Abcam), diluted 1:2000 in antibody buffer (50 mM HEPES pH 7.5, 150 mM NaCl, 10 mM MgCl2, 0.05% Tween-20, and 1% BSA) for 1 h, followed by secondary antibody (horse anti-mouse HRP-conjugated IgG, Cell Signaling Technology), diluted 1:5000 in antibody buffer, for 1.5 h at room temperature. After washing three times with 1× HBS-T and two times with 1× HBS, 200 μL HRP substrate (SigmaFast OPD) was added per well. The plates were incubated at room temperature, and the absorbance was read at 450 nm after 15 min and 30 min using a SpectraMax 340 PC plate reader (Molecular Devices). For dose-response measurements, absorption values were corrected for unspecific binding of Hsp90 to immobilized GST, and the raw data were fit to equation (1), where f(I) is the fraction of complex remaining, [I] is the concentration of the inhibitor, IC50 is the half maximal inhibitory concentration against Hsp90-p50^Cdc37 complex formation, n is the Hill slope coefficient, min is the signal remaining at high inhibitor concentrations and max is the signal of the uninhibited complex. Corrected absorption values (ΔOD) for the uninhibited Hsp90-p50^Cdc37 complex (unphosphorylated and phosphorylated) were in the range of 0.4–1.0. Data were expressed relative to the respective max value of Equation (1). (1) f(I)=min+(max−min)/1+([I]/IC50)^n

(p)Hsp90-p50^Cdc37 = (p)Hsp90-p50^Cdc37 (Homo sapiens, UniProt P08238); experiment: ELISA complex formation, CK2-phosphorylated Hsp90β; conditions: ELISA, (p)Hsp90-p50^Cdc37
Chain of (p)Hsp90-p50^Cdc37 (P08238 whole entry): as above
Description: as §2, §3

Hsp90-p50^Cdc37 = target: T3, Hsp90-p50^Cdc37 (Homo sapiens, UniProt P08238); experiment: ELISA complex formation, immobilized GST-p50^Cdc37 and Hsp90β, unphosphorylated; type: binding; conditions: for inhibitory activity against the complex: unphosphorylated or phosphorylated complex, in vitro
T3 construct: The gene encoding human full-length Hsp90β was subcloned from T47D cell line cDNA; made in house; host or cells: E. coli BL21 Star (DE3) (Hsp90β); E. coli BL21 (DE3) (GST-p50Cdc37)

ΔHsp90-p50^Cdc37 = target: T4, ΔHsp90-p50^Cdc37 (Homo sapiens, UniProt P08238, DEL220-271/E274G/I272G/K273G/K275G); experiment: ELISA complex formation, ΔHsp90; type: binding
T4 construct: human Hsp90β (1-724 Δ220-275); made in house; host or cells: E. coli BL21 Star (DE3) (ΔHsp90β); E. coli BL21 (DE3) (GST-p50Cdc37)
T4 sequence (P08238 with tags, fused parts or gaps DEL220-271/I272G/K273G/E274G/K275G): as the sequence (P08238 with tags, fused parts or gaps DEL220-271/I272G/K273G/E274G/K275G) above

hHsp90β-FL [3] = conditions: ref [32], read-out: Reported Kd; cited from earlier work
yHsp82-FL = conditions: yHsp82-FL; ref [34]; read-out: Reported Kd; cited from earlier work
[4] = tested on: yeast Hsp90 complex formation with human p50^Cdc37 or yeast Cdc37 protein; parameters: method as in PMID 11916974; conditions: ref [39]; cited from earlier work
h(p)Hsp90β-FL = h(p)Hsp90β-FL (Homo sapiens, UniProt P08238); experiment: ITC direct binding to CK2-phosphorylated full-length Hsp90β; conditions: 30 °C, read-out: Observed Kd
Chain of h(p)Hsp90β-FL (P08238 whole entry): as the sequence (P08238 whole entry) above
Description: as §1

effect on complex in GST pull-down ([1]; 1 mM nucleotide or 0.1 mM inhibitor, 15 min incubation, SDS-PAGE): ineffective
protection of the complex from ADP in GST pull-down competition ([1]; in the presence of ADP, 0.1 mM radicicol): had no effect
binding potential towards Hsp90β (hHsp90β-FL [2]): failed to display binding potential
IC50 ((p)Hsp90-(p)p50^Cdc37): > 1 mM
IC50 ((p)Hsp90-p50^Cdc37): > 1 mM
IC50 (Hsp90-p50^Cdc37; ELISA, Hsp90-p50^Cdc37 (unphosphorylated)): > 1 mM
IC50 (ΔHsp90-p50^Cdc37): > 1 mM
Compound: O=C(O)CCc1nn(Cc2ccc(Cl)cc2Cl)c2cc(C(F)(F)F)ccc12 [H2-GMZ, H2-gamendazole]
inhibitory activity against the complex (Hsp90-p50^Cdc37): did not show appreciable inhibitory activity
inhibitory activity against the complex (Hsp90-p50^Cdc37; listed as H2-gamendazole): did not affect the interaction of Hsp90 with p50^Cdc37 in vitro

Compound: CCNC(=O)c1noc(-c2cc(C(C)C)c(O)cc2O)c1-c1ccc(CN2CCOCC2)cc1 [NVP-AUY922]
Kd (hHsp90β-FL [3]): 1.7 nM
inhibitory activity against the complex (Hsp90-p50^Cdc37): did not show appreciable inhibitory activity

Compound: C[C@@H]1C[C@H]2O[C@@H]2/C=C\C=C\C(=O)Cc2c(Cl)c(O)cc(O)c2C(=O)O1 [Radicicol]
Kd (yHsp82-FL): 19 nM

Compound: COC1=C2C[C@@H](C)C[C@H](OC)[C@H](O)[C@@H](C)/C=C(\C)[C@H](OC(N)=O)[C@@H](OC)/C=C\C=C(/C)C(=O)NC(=CC1=O)C2=O [geldanamycin]
influence on complex formation [4]: did not influence complex formation

Kd (h(p)Hsp90β-FL): 1900 ± 130 nM
Compound: (p)p50^Cdc37: human p50^Cdc37 phosphorylated by CK2 at residue Ser13
